Measurements: patent publication US20250154099A1, “PREPARATION METHOD OF 2-PHENYLINDOLE DERIVATIVES AND APPLICATION THEREOF” (Shihezi University, priority 2022, published 2025)
Values after ≈ are worked out from the molar mass of the structure shown. Read-outs that look alike come from different tables or passages of the source.

Columns and labels:
Assay type in all cases: cell-based
[1] = system: Escherichia coli BNCC336902; assay: MIC by microdilution method, sensitive Escherichia coli; details: read-out: MIC Escherichia coli
Excerpt: (§1) Used bacteria: including drug-resistant bacteria and sensitive bacteria: the used sensitive strains include Cryptococcus neoformans BNCC225501, Candida albicans BNCC186382, Aspergillus fumigatus Fresenius BNCC338385, Escherichia coli BNCC336902, Staphylococcus aureus BNCC186335 and Pseudomonas aeruginosa Migula BNCC337940, and the used drug-resistant Candida albicans is clinically isolated azole multi-drug resistant Candida albicans (CA10) donated by Qianfoshan Hospital in Shandong Province. The strains are stored in normal saline containing 20% glycerol at −80° C. for a long time. Before operation, the strains are lined and transferred to a YPD solid plate, and subjected to static culture at 30° C. for 24 h; single colonies are selected and transferred to a YPD liquid medium, and cultured at 200 rpm at 30° C. overnight; and the overnight cultured bacterial solution is inoculated into a new YPD liquid medium at a ratio of about 1:100, and subjected to shaking culture at 200 rpm at 30° C. for 4 h so that Candida albicans is in a logarithmic phase.
(§2) Culture medium: the culture medium used by the microdilution method is RPMI-1640 culture medium (Gibco).
(§3) 1.2 Operation and results of detection of minimum inhibitory concentration (MIC) of the compounds and the azole drugs by the microdilution method: the MIC of the synthesized compound and the azole drug fluconazole for the standard strains is detected by the microdilution method according to fungal sensitivity detection method (M27-A3) established by the Clinical and Laboratory Standards Institute (CLSI). Specific steps are as follows: the prepared strain concentration is adjusted to 0.5-2.5×10^3 CFU/mL by using RPMI-1640 medium. 200 μL of bacterial solution containing the highest concentration of the drug to be detected is added into the first well of a 96-well plate, and 100 μL of blank bacterial solution without drug is added into each of the other wells; the bacterial solution is diluted to a series of concentration gradients by a double gradient dilution method; the well plate is subjected to static culture at constant temperature of 35° C. for 24 h; after the absorbance (OD) of each concentration gradient at 570 nm is detected by a microplate reader and the absorbance of a blank medium is subtracted, the growth rate=dosing hole value/control hole value ×100%, the inhibition rate=1−growth rate, and the minimum concentration with the inhibition rate greater than 80% is the minimum inhibitory concentration (MIC) value.

[2] = system: Pseudomonas aeruginosa Migula BNCC337940; assay: MIC by microdilution method, sensitive Pseudomonas aeruginosa Migula; details: 24 h, read-out: MIC Pseudomonas aeruginosa Migula
Excerpt: as §1, §2, §3

[3] = system: Staphylococcus aureus BNCC186335; assay: MIC by microdilution method, sensitive Staphylococcus aureus; details: read-out: MIC Staphylococcus aureus
Excerpt: as §1, §2, §3

[4] = system: Drug-resistant Candida albicans CA10; assay: MIC by microdilution method, drug-resistant Candida albicans CA10; details: clinically isolated azole multi-drug resistant strain CA10; 24 h
Excerpt: as §1, §2, §3

[5] = system: Candida albicans BNCC186382; assay: MIC by microdilution method, sensitive Candida albicans; details: for MIC: Candida albicans, read-out: MIC Candida albicans
Excerpt: as §1, §2, §3

[6] = system: Aspergillus fumigatus Fresenius BNCC338385; assay: MIC by microdilution method, sensitive Aspergillus fumigatus Fresenius; details: 24 h; for MIC: Aspergillus fumigatus, read-out: MIC Aspergillus fumigatus Fresenius
Excerpt: as §1, §2, §3

[7] = system: Cryptococcus neoformans BNCC225501; assay: MIC by microdilution method, sensitive Cryptococcus neoformans; details: for MIC: Cryptococcus neoformans, read-out: MIC Cryptococcus neoformans
Excerpt: as §1, §2, §3

[8] = BNCC336902, sensitive strain, 35° C., 24 h, minimum concentration with inhibition rate greater than 80%
[9] = sensitive strain, 35° C., minimum concentration with inhibition rate greater than 80%
[10] = BNCC186335, sensitive strain, 35° C., 24 h, minimum concentration with inhibition rate greater than 80%
[11] = BNCC186382, sensitive strain, 35° C., 24 h, minimum concentration with inhibition rate greater than 80%
[12] = BNCC225501, sensitive strain, 35° C., 24 h, minimum concentration with inhibition rate greater than 80%
[13] = sensitive strain, 35° C., 24 h, minimum concentration with inhibition rate greater than 80%

Row | SMILES | MIC [1, 8] | MIC [2, 9] | MIC [3, 10] | MIC80 Drug-resistant Candida albicans CA10 [4] | MIC [5, 11] | MIC [6, 9] | MIC [7, 12] | MIC ([1]; BNCC336902, 24 h) | MIC [2] | MIC ([3]; BNCC186335, 24 h) | MIC ([5]; BNCC186382, 24 h) | MIC [6] | MIC ([7]; BNCC225501, 24 h) | MIC Candida albicans [5, 13] | MIC Aspergillus fumigatus Fresenius [6, 9] | MIC Cryptococcus neoformans [7, 13]
1 | COC(=O)c1ccc2cc(-c3ccccc3)[nH]c2c1 [Compound 20] | 256 µg/mL (≈ 1020 µM) | 8 µg/mL (≈ 31.8 µM) | 32 µg/mL (≈ 127 µM) | > 256 µg/mL | 32 µg/mL (≈ 127 µM) | 256 µg/mL (≈ 1020 µM) | 256 µg/mL (≈ 1020 µM) |  |  |  |  |  |  |  |  | 
2 | c1ccc(-c2cc3ccccc3[nH]2)cc1 [Compound 6] |  |  |  | > 256 µg/mL |  |  |  | > 256 µg/mL | > 256 µg/mL | > 256 µg/mL | > 256 µg/mL | > 256 µg/mL | 256 µg/mL (≈ 1320 µM) |  |  | 
3 | Clc1ccc2[nH]c(-c3ccccc3)cc2c1 [Compound 21] | > 256 µg/mL | > 256 µg/mL | > 256 µg/mL | > 256 µg/mL | > 256 µg/mL | > 256 µg/mL | > 256 µg/mL |  |  |  |  |  |  |  |  | 
4 | Fc1ccc2[nH]c(-c3ccccc3)cc2c1 [Compound 22] | 32 µg/mL (≈ 151 µM) | 256 µg/mL (≈ 1210 µM) | 16 µg/mL (≈ 75.7 µM) | > 256 µg/mL | 256 µg/mL (≈ 1210 µM) | 256 µg/mL (≈ 1210 µM) | 8 µg/mL (≈ 37.9 µM) |  |  |  |  |  |  |  |  | 
5 | Brc1ccc2cc(-c3ccccc3)[nH]c2c1 [Compound 23] | 256 µg/mL (≈ 941 µM) | 8 µg/mL (≈ 29.4 µM) | 256 µg/mL (≈ 941 µM) | > 256 µg/mL | 256 µg/mL (≈ 941 µM) | 256 µg/mL (≈ 941 µM) | 256 µg/mL (≈ 941 µM) |  |  |  |  |  |  |  |  | 
6 | COc1ccc2[nH]c(-c3ccccc3)cc2c1 [Compound 18] | 256 µg/mL (≈ 1150 µM) | 256 µg/mL (≈ 1150 µM) | 256 µg/mL (≈ 1150 µM) | > 256 µg/mL | 256 µg/mL (≈ 1150 µM) | 256 µg/mL (≈ 1150 µM) | 256 µg/mL (≈ 1150 µM) |  |  |  |  |  |  |  |  | 
7 | FC(F)(F)c1ccc(-c2cc3ccccc3[nH]2)cc1 [Compound 13] |  |  |  | > 256 µg/mL |  |  |  | 256 µg/mL (≈ 980 µM) | 16 µg/mL (≈ 61.2 µM) | 256 µg/mL (≈ 980 µM) | 256 µg/mL (≈ 980 µM) | 256 µg/mL (≈ 980 µM) | 256 µg/mL (≈ 980 µM) |  |  | 
8 | Cc1ccc2[nH]c(-c3ccccc3)cc2c1 [Compound 16] | 16 µg/mL (≈ 77.2 µM) | 256 µg/mL (≈ 1240 µM) | 256 µg/mL (≈ 1240 µM) | > 256 µg/mL | 256 µg/mL (≈ 1240 µM) | 256 µg/mL (≈ 1240 µM) | 256 µg/mL (≈ 1240 µM) |  |  |  |  |  |  |  |  | 
9 | Clc1ccc(-c2cc3ccccc3[nH]2)cc1 [Compound 11] |  |  |  | > 256 µg/mL |  |  |  | > 256 µg/mL | > 256 µg/mL | > 256 µg/mL | > 256 µg/mL | > 256 µg/mL | > 256 µg/mL |  |  | 
10 | COc1ccc2cc(-c3ccccc3)[nH]c2c1 [Compound 3] | 256 µg/mL (≈ 1150 µM) | 64 µg/mL (≈ 287 µM) | 256 µg/mL (≈ 1150 µM) | > 256 µg/mL | 256 µg/mL (≈ 1150 µM) | 256 µg/mL (≈ 1150 µM) | 256 µg/mL (≈ 1150 µM) |  |  |  |  |  |  |  |  | 
11 | Fc1ccc(-c2cc3ccccc3[nH]2)cc1 [Compound 10] |  |  |  | > 256 µg/mL |  |  |  | > 256 µg/mL | > 256 µg/mL | > 256 µg/mL | > 256 µg/mL | > 256 µg/mL | > 256 µg/mL |  |  | 
12 | c1ccc2[nH]c(-c3ccc4c(c3)OCO4)cc2c1 [Compound 15] |  |  |  | > 256 µg/mL |  |  |  | 256 µg/mL (≈ 1080 µM) | 16 µg/mL (≈ 67.4 µM) | 256 µg/mL (≈ 1080 µM) | 256 µg/mL (≈ 1080 µM) | 256 µg/mL (≈ 1080 µM) | 256 µg/mL (≈ 1080 µM) |  |  | 
13 | C[C@@H]1[C@H](O)[C@@H](C)/C=C/C=C/C=C/C=C/C=C/C=C/C=C/[C@H](O[C@@H]2O[C@H](C)[C@@H](O)[C@H](N)[C@@H]2O)C[C@@H]2O[C@](O)(C[C@@H](O)C[C@@H](O)[C@H](O)CC[C@@H](O)C[C@@H](O)CC(=O)O[C@H]1C)C[C@H](O)[C@H]2C(=O)O [Amphotericin B, amphotericin B, reference compound] |  |  |  |  |  |  |  |  |  |  |  |  |  | 2 µg/mL (≈ 2.16 µM) | 16 µg/mL (≈ 17.3 µM) | 64 µg/mL (≈ 69.3 µM)
14 | O=[N+]([O-])c1cccc(-c2cc3ccccc3[nH]2)c1 [Compound 12] |  |  |  | > 256 µg/mL |  |  |  | 8 µg/mL (≈ 33.6 µM) | 2 µg/mL (≈ 8.39 µM) | 256 µg/mL (≈ 1070 µM) | 4 µg/mL (≈ 16.8 µM) | 4 µg/mL (≈ 16.8 µM) | 8 µg/mL (≈ 33.6 µM) |  |  | 
15 | Cc1ccc(-c2cc3ccccc3[nH]2)cc1 [Compound 8] |  |  |  | > 256 µg/mL |  |  |  | 8 µg/mL (≈ 38.6 µM) | 256 µg/mL (≈ 1240 µM) | 256 µg/mL (≈ 1240 µM) | 256 µg/mL (≈ 1240 µM) | 256 µg/mL (≈ 1240 µM) | 256 µg/mL (≈ 1240 µM) |  |  | 
16 | COC(=O)c1ccc2[nH]c(-c3ccccc3)cc2c1 [Compound 19] | 256 µg/mL (≈ 1020 µM) | 32 µg/mL (≈ 127 µM) | 8 µg/mL (≈ 31.8 µM) | > 256 µg/mL | 8 µg/mL (≈ 31.8 µM) | 16 µg/mL (≈ 63.7 µM) | 256 µg/mL (≈ 1020 µM) |  |  |  |  |  |  |  |  | 
17 | [H]/N=C(/N)N[C@H]1[C@H](O)[C@@H](O)[C@H](O[C@@H]2O[C@@H](C)[C@](O)(C=O)[C@H]2O[C@@H]2O[C@@H](CO)[C@H](O)[C@@H](O)[C@@H]2NC)[C@@H](N/C(N)=N\[H])[C@@H]1O [Streptomycin, reference compound] | 2 µg/mL (≈ 3.44 µM) | 2 µg/mL (≈ 3.44 µM) | 2 µg/mL (≈ 3.44 µM) |  |  |  |  |  |  |  |  |  |  |  |  | 
18 | Cc1cccc(-c2cc3ccccc3[nH]2)c1 [Compound 7] |  |  |  | > 256 µg/mL |  |  |  | 8 µg/mL (≈ 38.6 µM) | 256 µg/mL (≈ 1240 µM) | 8 µg/mL (≈ 38.6 µM) | 256 µg/mL (≈ 1240 µM) | 256 µg/mL (≈ 1240 µM) | 256 µg/mL (≈ 1240 µM) |  |  | 
19 | COc1cccc(-c2cc3ccccc3[nH]2)c1 [Compound 1] |  |  |  | > 256 µg/mL |  |  |  | 4 µg/mL (≈ 17.9 µM) | 8 µg/mL (≈ 35.8 µM) | 64 µg/mL (≈ 287 µM) | 16 µg/mL (≈ 71.7 µM) | 8 µg/mL (≈ 35.8 µM) | 4 µg/mL (≈ 17.9 µM) |  |  | 
